Laboratory results: patent US20030161871A1, “Solubilized riboflavin” (priority 2001, published 2003)
≈ marks a conversion by molar mass, not a printed value. Where two headings read alike, the source gives them in different places.

How the values were obtained:
[1] = Solubilization of lumichrome in the FMN formulation; assay type: physicochemical
[2] = Solubility of riboflavin as a function of pH and % FMN; assay type: physicochemical; conditions: for solubility thermodynamic: thermodynamic from solid
From the text: The equilibrium solubility of riboflavin is approximately 70 mcg/ml (see plot below with no FMN present). Precipitation is expected to occur if riboflavin reaches a level above this (due to riboflavin in drug substance or due to degradation to riboflavin with time), and precipitation would be unacceptable for patient safety with intravenous use.
Solubility of Riboflavin as a function of pH and % FMN [formula]
At 1% FMN, up to 365 mcg/ml of riboflavin can dissolve.

Row | SMILES | solubility of lumichrome in the current formulation [1] | solubility thermodynamic ([2]; 1% FMN solution, aqueous with cosolvent or surfactant or cyclodextrin, read-out: riboflavin that can dissolve (equilibrium solubility)) [µg/mL] | solubility thermodynamic ([2]; 5% FMN solution, aqueous with cosolvent or surfactant or cyclodextrin, 5% FMN, pH 7-8, read-out: riboflavin that can dissolve (equilibrium solubility)) [µg/mL] | equilibrium solubility of riboflavin ([2]; no FMN present) | solubility thermodynamic ([2]; no FMN present, read-out: equilibrium solubility of riboflavin) [µg/mL]
1 | Cc1cc2nc3[nH]c(=O)[nH]c(=O)c3nc2cc1C [lumichrome] | dissolve at levels above the equilibrium solubility |  |  |  | 
2 | Cc1cc2nc3c(=O)[nH]c(=O)nc-3n(C[C@H](O)[C@H](O)[C@H](O)CO)c2cc1C [riboflavin] |  | ≤ 365 | ≤ 1320 | approximately 70 mcg/ml | ~70 (≈ 186 µM)
